In patent US10301295B2, “Herbicidal compounds” (Syngenta Participations AG, priority 2014, dated 2019):
Read-outs that look alike come from different tables or passages of the source.

How the values were obtained:
Assay type in all cases: in vivo
Lolium perenne (LOLPE) = assay: Glasshouse assay for herbicidal activity, pre-/post-emergence (percentage phytotoxicity); settings: Lolium perenne, Rate 250 g/ha, 100%=total damage, 0%=no damage
How it was run: (§1)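 Percentage phytotoxicity was assessed visually, 100% meaning total plant damage and 0% none, at 20 days after application for pre-emergence and 15 days for post-emergence. Plants were potted in standard soil and treated after 1 day or about 12 days of growth.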

[1] = system: Alopecurus myosuroides (ALOMY); assay: as above; settings: Alopecurus myosuroides, Rate 250 g/ha, 100%=total damage, 0%=no damage
How it was run: as §1

[2] = system: Echinochloa crus-galli (ECHCG); assay: as above; settings: Echinochloa crus-galli, Rate 250 g/ha, 100%=total damage, 0%=no damage
How it was run: as §1

Avena fatua (AVEFA) = assay: as above; settings: Avena fatua, Rate 250 g/ha, 100%=total damage, 0%=no damage
How it was run: as §1

wheat = assay: Post-emergence herbicidal activity against cereal crops (wheat) +/- safener, crop selectivity; settings: 100%=total damage to plant, 0%=no damage; for Post-emergence herbicidal activity against wheat (percentage phytotoxicity), +CQC: 250 g/ha, plus safener cloquintocet-mexyl (CQC) applied at 50 g/ha; for percent phytotoxicity (crop damage) to wheat at 250 g/ha: Triticum aestivum, 360 h, without safener, read-out: Post-emergence herbicidal activity against wheat (percentage phytotoxicity), Wheat - CQC
How it was run: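 Test plants raised in pots in a glasshouse (24/18 °C warm or 20/16 °C cool species day/night, 16 h light, 65% humidity) and treated post-emergence about 12 days after sowing. Visual percentage phytotoxicity scored 15 days after application (0% = no damage, 100% = total damage).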

[3] = post-emergence, 360 h, post-emergence, visual assessment 15 DAA, read-out: Post-emergence herbicidal activity (percentage phytotoxicity), LOLPE POST
[4] = pre-emergence, 480 h, pre-emergence, visual assessment 20 DAA, read-out: Pre-emergence herbicidal activity (percentage phytotoxicity), LOLPE PRE
[5] = 360 h, post-emergence, visual assessment 15 DAA, read-out: Post-emergence herbicidal activity (percentage phytotoxicity), ALOMY POST
[6] = 480 h, pre-emergence, visual assessment 20 DAA, read-out: Pre-emergence herbicidal activity (percentage phytotoxicity), ALOMY PRE
[7] = post-emergence, 360 h, post-emergence, visual assessment 15 DAA, read-out: Post-emergence herbicidal activity (percentage phytotoxicity), ECHCG POST
[8] = pre-emergence, 480 h, pre-emergence, visual assessment 20 DAA, read-out: Pre-emergence herbicidal activity (percentage phytotoxicity), ECHCG PRE
[9] = post-emergence, 360 h, post-emergence, visual assessment 15 DAA, read-out: Post-emergence herbicidal activity (percentage phytotoxicity), AVEFA POST
[10] = pre-emergence, 480 h, pre-emergence, visual assessment 20 DAA, read-out: Pre-emergence herbicidal activity (percentage phytotoxicity), AVEFA PRE

Row | SMILES | pest or weed control at 250 g/ha (Lolium perenne (LOLPE); [3]) [%] | pest or weed control at 250 g/ha (Lolium perenne (LOLPE); [4]) [%] | pest or weed control at 250 g/ha [1, 5] [%] | pest or weed control at 250 g/ha [1, 6] [%] | pest or weed control at 250 g/ha [2, 7] [%] | pest or weed control at 250 g/ha [2, 8] [%] | pest or weed control at 250 g/ha (Avena fatua (AVEFA); [9]) [%] | pest or weed control at 250 g/ha (Avena fatua (AVEFA); [10]) [%] | Post-emergence herbicidal activity against wheat (percentage phytotoxicity), +CQC (wheat) [%] | percent phytotoxicity (crop damage) to wheat at 250 g/ha (wheat) [%]
1 | CCS(=O)(=O)NCCC1CC(=O)C(c2c(C)cc(C)cc2C)C1=O (centres unmarked) [Compound A83] | 70 | 90 | 80 | 90 | 70 | 70 | 80 | 80 | 10 | 80
2 | Cc1cc(C)c(C2C(=O)CC(CCNC(=O)NC(=O)c3ccccc3)C2=O)c(C)c1 (centres unmarked) [Compound A46] | 100 | 70 | 70 | 30 | 100 | 60 | 90 | 30 | 70 | 80
